The results in this text go back to ChEMBL document CHEMBL5465560, “Selectivity Literature for EUbOPEN Chemogenomic Library” (2024).

Test [1] concerns the target T1, Receptor-interacting serine/threonine-protein kinase 4 (Homo sapiens) (UniProt P57078).
T1 sequence (whole entry): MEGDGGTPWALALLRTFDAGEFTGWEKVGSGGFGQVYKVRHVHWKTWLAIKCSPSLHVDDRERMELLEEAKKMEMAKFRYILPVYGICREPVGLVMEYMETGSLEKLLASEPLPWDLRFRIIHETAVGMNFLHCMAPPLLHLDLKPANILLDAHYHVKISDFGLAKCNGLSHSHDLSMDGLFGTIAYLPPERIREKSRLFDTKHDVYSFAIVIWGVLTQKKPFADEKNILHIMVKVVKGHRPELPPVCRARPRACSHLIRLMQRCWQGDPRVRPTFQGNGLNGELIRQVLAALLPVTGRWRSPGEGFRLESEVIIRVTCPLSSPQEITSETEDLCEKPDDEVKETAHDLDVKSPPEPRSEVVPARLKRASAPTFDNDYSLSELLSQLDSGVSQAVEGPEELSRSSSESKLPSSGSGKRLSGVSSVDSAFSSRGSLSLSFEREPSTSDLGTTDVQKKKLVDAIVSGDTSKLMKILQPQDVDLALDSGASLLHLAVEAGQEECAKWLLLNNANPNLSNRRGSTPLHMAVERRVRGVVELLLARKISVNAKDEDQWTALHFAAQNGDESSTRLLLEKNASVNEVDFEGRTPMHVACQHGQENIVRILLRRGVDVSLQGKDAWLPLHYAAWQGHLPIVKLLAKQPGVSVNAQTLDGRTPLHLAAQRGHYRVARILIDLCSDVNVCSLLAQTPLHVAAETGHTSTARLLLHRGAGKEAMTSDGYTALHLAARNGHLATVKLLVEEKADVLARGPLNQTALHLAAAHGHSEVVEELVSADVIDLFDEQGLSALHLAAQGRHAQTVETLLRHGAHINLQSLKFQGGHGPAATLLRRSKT
Description: Selectivity interaction (KinomeScan (DiscoverX)) EUB0000595a RIPK4. As to conditions: at 10 µM.

Test [2] has as its target Serine/threonine-protein kinase 35 (Homo sapiens) (UniProt Q8TDR2). Description: Selectivity interaction (KinomeScan (DiscoverX)) EUB0000695a STK35. To be noted: at 100 nM.
Test [3] addresses MAP kinase-interacting serine/threonine-protein kinase 2 (Homo sapiens, UniProt Q9HBH9). Description: Selectivity interaction (KinomeScan (DiscoverX)) EUB0000607a MKNK2. To be noted: at 10 µM.
The target in test [4] is High affinity nerve growth factor receptor (Homo sapiens, UniProt P04629). Description: Selectivity interaction (KinomeScan (DiscoverX)) EUB0000607a NTRK1. To be noted: at 10 µM.
Test [5] has as its target Receptor-type tyrosine-protein kinase FLT3 (Homo sapiens) (UniProt P36888). The test can be described thus: Selectivity interaction (Kinase panel (Invitrogen)) EUB0000639a FLT3. As to conditions: at 200 nM.
The target in test [6] is Ribosomal protein S6 kinase beta-1 (Homo sapiens, UniProt P23443). Description: Selectivity interaction (ActivX KiNativ screen (kinase selectivity in THP-1 cell lysates)) EUB0000639a RPS6KB1. It is filed as subcellular. As to conditions: lysate, at 0.2 µM.
Test [7] deals with T2, Histone-lysine N-methyltransferase SMYD3 (Homo sapiens) (UniProt Q9H7B4).
T2 sequence (whole entry): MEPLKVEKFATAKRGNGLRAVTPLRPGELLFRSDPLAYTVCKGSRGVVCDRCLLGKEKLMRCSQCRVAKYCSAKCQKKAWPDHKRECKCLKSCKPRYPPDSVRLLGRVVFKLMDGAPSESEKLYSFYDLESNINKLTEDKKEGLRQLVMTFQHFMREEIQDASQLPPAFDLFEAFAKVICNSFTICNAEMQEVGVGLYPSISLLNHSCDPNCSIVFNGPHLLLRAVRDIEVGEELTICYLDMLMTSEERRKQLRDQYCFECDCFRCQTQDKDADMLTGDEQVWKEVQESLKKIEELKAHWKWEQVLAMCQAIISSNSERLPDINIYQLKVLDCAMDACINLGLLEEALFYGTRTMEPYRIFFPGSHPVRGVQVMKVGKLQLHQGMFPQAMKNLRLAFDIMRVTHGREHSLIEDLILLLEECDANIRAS
To be noted: at 10 µM.

In test [8] the target is Histone-lysine N-methyltransferase PRDM9 (Homo sapiens) (UniProt Q9NQV7). As to conditions: at 10 µM.
The target of test [9] is Glycogen synthase kinase-3 alpha (Homo sapiens, UniProt P49840). Description: Selectivity interaction (ProQinase) EUB0000171b GSK3A.
Test [10] deals with Ribosomal protein S6 kinase alpha-3 (Homo sapiens, UniProt P51812). The test can be described thus: Selectivity interaction (KinomeScan (DiscoverX)) EUB0000655a RPS6KA3. To be noted: at 10 µM.
The target of test [11] is T3, Ephrin type-B receptor 6 (Homo sapiens) (UniProt O15197).
T3 sequence (whole entry): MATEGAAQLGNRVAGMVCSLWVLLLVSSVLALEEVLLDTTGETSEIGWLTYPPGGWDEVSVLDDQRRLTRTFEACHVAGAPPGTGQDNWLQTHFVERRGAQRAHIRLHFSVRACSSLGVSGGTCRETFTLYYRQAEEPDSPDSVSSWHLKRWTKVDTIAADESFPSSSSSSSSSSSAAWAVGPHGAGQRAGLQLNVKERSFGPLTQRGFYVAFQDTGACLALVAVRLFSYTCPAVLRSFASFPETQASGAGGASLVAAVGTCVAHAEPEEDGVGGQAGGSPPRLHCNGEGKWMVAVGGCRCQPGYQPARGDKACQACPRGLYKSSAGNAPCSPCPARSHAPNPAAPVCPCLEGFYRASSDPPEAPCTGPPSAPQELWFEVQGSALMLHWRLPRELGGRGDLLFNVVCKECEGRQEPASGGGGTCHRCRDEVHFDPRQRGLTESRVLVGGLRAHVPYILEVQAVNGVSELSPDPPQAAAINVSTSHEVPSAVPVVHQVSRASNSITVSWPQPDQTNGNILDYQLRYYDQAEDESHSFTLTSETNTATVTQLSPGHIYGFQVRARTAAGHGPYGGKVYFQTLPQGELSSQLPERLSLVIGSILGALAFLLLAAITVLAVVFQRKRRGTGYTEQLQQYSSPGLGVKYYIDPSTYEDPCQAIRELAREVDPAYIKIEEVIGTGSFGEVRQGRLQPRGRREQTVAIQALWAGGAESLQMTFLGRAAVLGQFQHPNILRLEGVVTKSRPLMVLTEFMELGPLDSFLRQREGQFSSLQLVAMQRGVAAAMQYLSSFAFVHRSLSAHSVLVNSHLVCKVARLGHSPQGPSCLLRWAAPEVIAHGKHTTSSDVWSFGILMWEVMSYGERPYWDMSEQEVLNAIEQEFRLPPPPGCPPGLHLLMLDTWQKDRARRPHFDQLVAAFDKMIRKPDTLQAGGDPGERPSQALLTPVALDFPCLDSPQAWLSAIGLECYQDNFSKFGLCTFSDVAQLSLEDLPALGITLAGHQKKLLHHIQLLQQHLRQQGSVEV
The test can be described thus: Selectivity interaction (KinomeScan (DiscoverX)) EUB0000092b EPHB6. To be noted: at 10 µM.

The target of test [12] is Serine/threonine-protein kinase mTOR (Homo sapiens, UniProt P42345). The test can be described thus: Selectivity interaction (KinomeScan (DiscoverX)) EUB0001079a MTOR. To be noted: at 1 µM.

The structures appear in SMILES notation. Where only a bound is given, the exact number is not on record here.

Glycogen synthase kinase-3 alpha, sequence (P49840 2-483 limits assumed): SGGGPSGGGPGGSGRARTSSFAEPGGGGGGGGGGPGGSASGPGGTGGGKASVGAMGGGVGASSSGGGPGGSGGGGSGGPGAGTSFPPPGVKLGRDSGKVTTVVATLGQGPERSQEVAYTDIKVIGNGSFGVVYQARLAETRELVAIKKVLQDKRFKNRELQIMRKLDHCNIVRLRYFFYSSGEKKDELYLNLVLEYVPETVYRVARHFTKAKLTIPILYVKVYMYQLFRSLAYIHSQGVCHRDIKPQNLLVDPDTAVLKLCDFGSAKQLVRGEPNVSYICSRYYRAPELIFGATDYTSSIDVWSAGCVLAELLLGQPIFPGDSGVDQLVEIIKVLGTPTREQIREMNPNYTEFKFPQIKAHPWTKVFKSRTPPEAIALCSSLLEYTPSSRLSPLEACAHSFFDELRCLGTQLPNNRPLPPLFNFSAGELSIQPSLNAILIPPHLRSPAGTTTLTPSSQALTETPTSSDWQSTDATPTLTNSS
Receptor-type tyrosine-protein kinase FLT3 (Homo sapiens), sequence (P36888 whole entry): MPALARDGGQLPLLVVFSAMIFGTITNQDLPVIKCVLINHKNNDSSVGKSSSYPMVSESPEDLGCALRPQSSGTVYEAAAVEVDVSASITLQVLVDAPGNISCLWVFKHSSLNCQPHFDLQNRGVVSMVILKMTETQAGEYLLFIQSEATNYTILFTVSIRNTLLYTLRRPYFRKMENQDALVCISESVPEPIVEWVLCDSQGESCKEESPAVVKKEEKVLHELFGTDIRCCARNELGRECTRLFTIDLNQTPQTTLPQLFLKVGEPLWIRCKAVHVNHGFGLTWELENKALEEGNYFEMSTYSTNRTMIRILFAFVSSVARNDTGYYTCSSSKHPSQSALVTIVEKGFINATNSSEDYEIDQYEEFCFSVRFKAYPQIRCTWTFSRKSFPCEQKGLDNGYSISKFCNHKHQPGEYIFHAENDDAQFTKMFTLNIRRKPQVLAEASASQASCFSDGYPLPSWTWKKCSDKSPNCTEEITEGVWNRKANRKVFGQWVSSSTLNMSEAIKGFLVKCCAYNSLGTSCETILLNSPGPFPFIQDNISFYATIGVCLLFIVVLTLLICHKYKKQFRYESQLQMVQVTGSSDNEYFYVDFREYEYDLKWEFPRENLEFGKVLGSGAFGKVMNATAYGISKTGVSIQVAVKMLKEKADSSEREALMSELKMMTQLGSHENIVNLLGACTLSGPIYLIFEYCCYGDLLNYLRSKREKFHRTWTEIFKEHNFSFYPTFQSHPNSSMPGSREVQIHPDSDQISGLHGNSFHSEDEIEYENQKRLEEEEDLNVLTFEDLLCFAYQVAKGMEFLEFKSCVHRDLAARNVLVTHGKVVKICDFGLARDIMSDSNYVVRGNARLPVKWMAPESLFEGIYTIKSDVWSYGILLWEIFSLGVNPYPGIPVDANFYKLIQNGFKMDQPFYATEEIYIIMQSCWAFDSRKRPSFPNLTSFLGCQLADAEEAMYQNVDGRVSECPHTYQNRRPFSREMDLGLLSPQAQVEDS
Histone-lysine N-methyltransferase PRDM9 (Homo sapiens), sequence (Q9NQV7 whole entry): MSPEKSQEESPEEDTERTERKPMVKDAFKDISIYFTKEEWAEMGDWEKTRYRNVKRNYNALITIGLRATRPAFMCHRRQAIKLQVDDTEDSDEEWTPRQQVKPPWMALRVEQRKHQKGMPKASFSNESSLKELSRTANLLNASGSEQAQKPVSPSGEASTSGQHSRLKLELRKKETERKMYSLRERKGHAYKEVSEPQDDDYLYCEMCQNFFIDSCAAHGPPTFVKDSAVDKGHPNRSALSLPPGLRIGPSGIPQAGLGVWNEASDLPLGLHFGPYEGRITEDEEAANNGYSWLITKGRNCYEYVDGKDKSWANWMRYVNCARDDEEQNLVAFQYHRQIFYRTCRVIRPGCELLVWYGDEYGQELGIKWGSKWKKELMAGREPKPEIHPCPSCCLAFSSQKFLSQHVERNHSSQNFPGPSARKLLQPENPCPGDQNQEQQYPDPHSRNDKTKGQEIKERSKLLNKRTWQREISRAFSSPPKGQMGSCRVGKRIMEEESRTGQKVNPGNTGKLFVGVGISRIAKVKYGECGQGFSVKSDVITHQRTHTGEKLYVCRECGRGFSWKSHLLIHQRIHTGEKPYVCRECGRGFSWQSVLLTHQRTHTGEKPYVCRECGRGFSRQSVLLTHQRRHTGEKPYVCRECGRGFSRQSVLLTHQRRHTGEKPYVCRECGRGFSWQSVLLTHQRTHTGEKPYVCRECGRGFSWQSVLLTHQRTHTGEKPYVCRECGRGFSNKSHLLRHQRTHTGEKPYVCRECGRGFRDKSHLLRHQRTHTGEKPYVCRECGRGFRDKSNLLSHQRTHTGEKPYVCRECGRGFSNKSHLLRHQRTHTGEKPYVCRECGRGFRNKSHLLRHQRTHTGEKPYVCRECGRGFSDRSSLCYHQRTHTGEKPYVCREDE
Serine/threonine-protein kinase 35 (Homo sapiens), sequence (Q8TDR2 whole entry): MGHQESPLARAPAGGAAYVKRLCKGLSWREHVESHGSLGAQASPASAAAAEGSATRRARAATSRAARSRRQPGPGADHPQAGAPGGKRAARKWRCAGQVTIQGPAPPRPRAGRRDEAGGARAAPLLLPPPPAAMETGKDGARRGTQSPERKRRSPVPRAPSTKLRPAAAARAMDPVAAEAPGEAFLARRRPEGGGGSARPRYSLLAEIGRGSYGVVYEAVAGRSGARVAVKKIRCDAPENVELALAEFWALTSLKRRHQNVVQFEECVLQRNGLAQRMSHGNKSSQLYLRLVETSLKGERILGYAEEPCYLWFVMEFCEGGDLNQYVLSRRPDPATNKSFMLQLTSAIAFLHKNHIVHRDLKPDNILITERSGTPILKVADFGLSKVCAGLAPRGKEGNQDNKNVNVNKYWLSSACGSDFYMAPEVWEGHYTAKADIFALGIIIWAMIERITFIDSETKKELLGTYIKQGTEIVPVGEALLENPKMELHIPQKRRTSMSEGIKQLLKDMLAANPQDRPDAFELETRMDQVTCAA
Ribosomal protein S6 kinase beta-1, sequence (P23443 whole entry, looked up): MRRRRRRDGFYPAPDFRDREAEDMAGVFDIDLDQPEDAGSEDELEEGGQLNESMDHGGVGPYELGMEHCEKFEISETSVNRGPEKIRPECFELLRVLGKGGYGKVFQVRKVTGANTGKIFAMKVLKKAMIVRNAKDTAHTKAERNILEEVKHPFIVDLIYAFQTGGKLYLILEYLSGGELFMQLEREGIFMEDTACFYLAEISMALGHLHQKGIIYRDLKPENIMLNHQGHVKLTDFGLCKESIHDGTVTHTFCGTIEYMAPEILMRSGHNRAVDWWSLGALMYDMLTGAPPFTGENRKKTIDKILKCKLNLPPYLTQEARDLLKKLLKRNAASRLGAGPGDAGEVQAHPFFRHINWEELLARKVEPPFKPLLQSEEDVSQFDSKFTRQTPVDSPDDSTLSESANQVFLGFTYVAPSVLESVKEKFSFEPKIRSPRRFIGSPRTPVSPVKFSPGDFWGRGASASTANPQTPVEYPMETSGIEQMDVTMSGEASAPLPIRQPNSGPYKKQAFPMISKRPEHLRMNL
Ribosomal protein S6 kinase alpha-3, sequence (P51812 whole entry): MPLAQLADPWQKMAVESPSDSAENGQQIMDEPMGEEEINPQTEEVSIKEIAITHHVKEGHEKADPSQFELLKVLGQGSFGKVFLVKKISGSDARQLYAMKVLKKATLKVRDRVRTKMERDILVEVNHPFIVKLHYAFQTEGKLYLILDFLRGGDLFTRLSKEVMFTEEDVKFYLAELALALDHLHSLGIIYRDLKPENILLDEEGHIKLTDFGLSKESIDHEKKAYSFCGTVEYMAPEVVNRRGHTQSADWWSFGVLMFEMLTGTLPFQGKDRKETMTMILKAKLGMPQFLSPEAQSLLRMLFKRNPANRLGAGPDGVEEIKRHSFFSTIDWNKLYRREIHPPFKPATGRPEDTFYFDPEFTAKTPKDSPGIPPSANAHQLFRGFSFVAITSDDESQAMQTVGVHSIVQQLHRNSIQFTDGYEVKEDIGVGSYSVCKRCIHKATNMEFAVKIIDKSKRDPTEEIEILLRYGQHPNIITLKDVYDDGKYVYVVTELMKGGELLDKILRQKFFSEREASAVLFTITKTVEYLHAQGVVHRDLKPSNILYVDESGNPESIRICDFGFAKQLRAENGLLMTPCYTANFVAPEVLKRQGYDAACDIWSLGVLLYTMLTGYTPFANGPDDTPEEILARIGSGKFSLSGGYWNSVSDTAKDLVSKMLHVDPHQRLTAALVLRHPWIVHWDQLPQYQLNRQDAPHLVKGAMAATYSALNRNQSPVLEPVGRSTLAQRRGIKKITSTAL
High affinity nerve growth factor receptor, sequence (P04629 33-796 limits assumed): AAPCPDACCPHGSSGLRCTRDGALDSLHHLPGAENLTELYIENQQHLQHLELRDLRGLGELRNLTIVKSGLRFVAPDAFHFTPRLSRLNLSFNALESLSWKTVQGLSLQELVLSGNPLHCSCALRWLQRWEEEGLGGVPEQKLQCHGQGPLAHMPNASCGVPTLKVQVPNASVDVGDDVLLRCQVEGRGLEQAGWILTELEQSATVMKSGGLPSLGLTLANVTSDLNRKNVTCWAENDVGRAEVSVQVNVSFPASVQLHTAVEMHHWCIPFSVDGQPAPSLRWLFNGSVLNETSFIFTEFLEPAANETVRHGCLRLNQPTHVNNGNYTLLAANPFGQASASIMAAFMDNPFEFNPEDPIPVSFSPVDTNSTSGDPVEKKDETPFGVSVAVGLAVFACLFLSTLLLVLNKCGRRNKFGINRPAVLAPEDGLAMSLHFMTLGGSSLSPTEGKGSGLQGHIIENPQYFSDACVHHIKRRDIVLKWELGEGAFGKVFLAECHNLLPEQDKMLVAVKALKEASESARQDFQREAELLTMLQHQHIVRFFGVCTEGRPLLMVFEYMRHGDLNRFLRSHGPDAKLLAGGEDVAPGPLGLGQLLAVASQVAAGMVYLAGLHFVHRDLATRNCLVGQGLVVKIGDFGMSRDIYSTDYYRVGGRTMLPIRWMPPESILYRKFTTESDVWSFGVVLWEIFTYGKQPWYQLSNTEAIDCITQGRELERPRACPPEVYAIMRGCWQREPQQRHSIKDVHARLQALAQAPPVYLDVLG

`COCC(=O)NC/C=C/c1ccc2ncnc(Nc3ccc(Oc4ccc(C)nc4)c(C)c3)c2c1` [CP-724714] had a % of control in test [1] of 100%. As to `Cc1cc(F)c(C(=O)Nc2cccc(-c3nncn3C(C)C)n2)cc1-n1cnc(C2CC2)c1`, in test [2], the % of control came out at 100%. In the case of `CNC(=O)Nc1ccc(-c2nc(N3CC4CCC(C3)O4)c3cnn(C4CCC5(CC4)OCCO5)c3n2)cc1`, the % of control in [3] was found to be 87%; in test [4] it was 100%. Turning to `CC[C@@H]1[C@H](F)C(=O)N[C@@H]1COc1nccc2cc(C(N)=O)c(OC)cc12` [ZIMLOVISERTIB], the figures for the % of inhibition in test [5] and in test [6] were 29.4% and -6.2%, respectively. In the case of `CNCCN1CCC(c2cc(CN(C)C(=O)c3cccc(Oc4ccccc4)c3)ccn2)CC1`, the % activity in test [7] and in test [8] was greater than 90% each time.

Turning to `C=CC(=O)Nc1cccc(C(=O)Nc2ccc(Nc3cc(-c4[nH]c(SC)nc4C)ccn3)cc2)c1`, the % of control is 90% in test [9] (at 1 µM) and 61% in test [9] (at 5 µM). Turning to `CN(C)CCOc1ccc(-c2nc(-c3ccncc3)c(-c3ccc4c(c3)CC/C4=N\O)[nH]2)cc1`, in [10], the % of control was 67%. Regarding `CCC(=O)N1CCN(c2ccc(-n3c(=O)ccc4cnc5ccc(-c6cnc7ccccc7c6)cc5c43)cc2C(F)(F)F)CC1`, in test [11], the % of control was determined as 80%. In turn, `Nc1cnc(N2CCc3cc(S(=O)(=O)Nc4c(F)cc(Cl)cc4F)cc(N4CCCC4=O)c32)nc1` [TP-020n] gave a % of control in [12] of 100%.
